# Entries after “also recorded” stand apart in the source; their conditions may differ.
# Key:
# [1] = Phase 2 open-label single arm clinical study, safety and tolerability; assay type: in vivo, patients; details: single RDEB patient, CIV infusions
# Experimental: A phase 2, open-label single arm was conducted. The study was designed to assess the efficacy and safety of Rigosertib in patients with recessive dystrophic epidermolysis bullosa (RDEB)-associated locally advanced/metastatic squamous cell carcinoma (SCC).
# In addition to the assessment of safety and tolerability, efficacy was measured by the overall response rate as assessed by RECIST. Patients were treated until RECIST progression criteria were met (i.e. 20% increase in tumor diameter or appearance of new malignant lesions) for 12 consecutive months or until an unacceptable toxicity or intolerance, or until remission.
# The study had two primary endpoints. The first was to determine the anti-tumor activity of rigosertib in RDEB patients with advanced SCC who had failed prior standard of care through the overall response rate (ORR), defined as the proportion of patients who achieved either a complete response (CR) or a partial response (PR). The second primary endpoint was to evaluate the safety and tolerability of rigosertib in the population. Secondary study endpoints included quality of life and a biomarker analysis performed on archival tissue from all patients. Patients were dosed for up to one year, with trial duration anticipated to be approximately two-and-a-half years. […]
# [2] = tested on: RDEB-associated locally advanced/metastatic squamous cell carcinoma (SCC); experiment: Phase 2 open-label single arm clinical study, tumor response (RECIST, MRI, clinical exam, histology); assay type: in vivo, patients
# Experimental: The study had two primary endpoints. […] The second primary endpoint was to evaluate the safety and tolerability of rigosertib in the population. Secondary study endpoints included quality of life and a biomarker analysis performed on archival tissue from all patients. Patients were dosed for up to one year, with trial duration anticipated to be approximately two-and-a-half years.
# Intravenous dosing: For continuous IV infusion as Rigosertib, sodium salt concentrate, 75 mg/mL, was formulated to contain 75 mg of Rigosertib sodium salt per mL (equivalent to 75 mg of Rigosertib sodium per mL) as a sterile solution in polyethylene glycol 400 (PEG 400) containing a small amount of sodium hydroxide for pH adjustment. Rigosertib.Na 75 mg/mL was packaged in single-use glass vials with Teflon-lined rubber stoppers containing 24 mL of drug product (1800 mg). Just prior to dosing, the Rigosertib concentrate (i.e. 1 glass vial, 24 mL) was diluted to a final volume of 500 ml in 0.9% sodium chloride for injection.
# Efficacy Assessments: Overall response rate (ORR) was defined as the proportion of patients who achieved either a CR or a PR. Responses of complete remission (CR), partial remission (PR), mCR, SD, failure, and PD were determined by RECIST criteria. The number and percent of patients with CR, PR, mCR, SD, Failure or PD were summarized.
# Response per RECIST criteria: Efficacy assessments included an initial tumor assessment at week 12 (±3 days) after first dose. Further tumor assessments were completed every 12 weeks (±3 days). Study evaluations were performed according to RECIST 1.1 criteria. High resolution CT with oral or IV contrast or contrast-enhanced MRI were used as imaging modalities for assessing radiographic tumor response. Screening/Baseline assessments were within 4 weeks of first dose of study drug. Brain MRI was used as an imaging method for evaluating CNS metastasis, and an assessment was required during screening/baseline and End of Therapy or as clinically indicated.
# Target lesions: When more than one measurable lesion was present at baseline, all lesions up to a maximum of 5 lesions total (and a maximum of two lesions per site), representative of all involved sites, were investigated as target lesions and are recorded and measured at baseline. Target lesions were selected on the basis of size (lesions with the longest diameter) and were representative of all involved sites. A sum of the diameters (longest for non-nodal lesions, short axis for nodal lesions) for all target lesions were calculated and reported as the baseline sum diameters. If lymph nodes were included in the sum, only the short axis was added into the sum. The baseline sum diameters were used as reference to characterize any objective tumor regression in the measurable dimension of the disease. […]
# [3] = tested on: normal primary keratinocytes; experiment: Effect on normal primary keratinocytes after 48 hours exposure, crystal violet staining / phase contrast; assay type: cell-based; details: FIG. 1
# Experimental: (§1) Panel A. Cells were seeded at high density and exposed to Rigosertib or vehicle control for 48 hours after which cells were fixed and stained with crystal violet. Panel B. Phase contrast images of unfixed cells in culture after given treatment of either control (left) or Rigosertib (1 μM, right).
# SCC RDEB16 keratinocytes = experiment: Tumor xenograft of SCC RDEB16 keratinocytes, tumor volume by calipers; assay type: in vivo, Balb/c SCID mice; details: subcutaneous inoculation; dosing after tumors reached 100 mm^3, administered 6 times; harvested day 35; FIG. 2
# Experimental: SCC RDEB16 keratinocytes were inoculated subcutaneously to Balb/c SCID mice. After tumors reached 100 mm^3, vehicle control, Rigosertib or Compound 1 (ATP-competitive inhibitor) were administered 6 times and tumor volume was measured with calipers. Tumors were harvested and photographed at day 35.
# RDEB SCC keratinocytes = experiment: Cell death of RDEB SCC keratinocytes after 48 hours exposure, crystal violet staining / phase contrast; assay type: cell-based
# Experimental: as §1
# [4] = one RDEB patient, intravenous rigosertib, 12 week MRI and clinic visit
structure (smiles),measurement,setting,value
"COc1cc(OC)c(/C=C/S(=O)(=O)Cc2ccc(OC)c(NCC(=O)O)c2)c(OC)c1 [Rigosertib, (E)-2-(5-((2,4,6-trimethoxystyrylsulfonyl)methyl)-2-methoxyphenylamino)acetic acid]",observed adverse effects,[1],CTCAE grade II irritative cystitis; also recorded: alopecia; also recorded: recurrent episode of bacteriaemia; also recorded: nausea; also recorded: increased lesional pain; also recorded: amenorrhea
same,safety and tolerability,[1],favorable
same,metastatic disease after trial completion,"[2]; RDEB patient, 17 treatment cycles",without signs of metastatic disease
same,remission of target lesions after trial completion,"[2]; RDEB patient, 72 hr CIV infusions 1800 mg/24 h days 1-3, 17 treatment cycles",sustained clinical and histological remission of all target lesions
same,"histology of biopsied target lesions (left hand, right elbow)",[2]; V25 (day 169-175),no histological signs of malignancy
same,"resolution of squamous cell target lesions (left hand), clinical exam and MRI",[2]; [4],complete resolution of two of three squamous cell target lesions
same,third target lesion (right elbow),[2]; [4],reduction in the third target lesion
same,effect on normal primary keratinocytes,[3],without affecting normal primary keratinocytes
same,tumor growth (tumor volume) of RDEB SCC keratinocytes in vivo,SCC RDEB16 keratinocytes,inhibits RDEB SCC keratinocyte grown in vivo
same,cell death in RDEB SCC keratinocytes,"RDEB SCC keratinocytes; 48 hours exposure, Rigosertib 1 μM in phase contrast images, FIG. 1",induces cell death
same,specificity / therapeutic window separating tumor and normal cells,"RDEB SCC keratinocytes; preclinical models, RDEB SCC keratinocytes vs normal cells",largest therapeutic window separating tumor and normal cells
